How the values were obtained:
[1] = target: T1, Alpha-1A adrenergic receptor (Rattus norvegicus, UniProt P43140); experiment: DRUGMATRIX: Alpha-1A adrenergic receptor radioligand binding (ligand: prazosin); type: cell membranes, Wistar, Submaxillary gland, Membrane; conditions: Not Active = under 50% inhibition at 10 µM
T1 sequence (P43140 whole entry): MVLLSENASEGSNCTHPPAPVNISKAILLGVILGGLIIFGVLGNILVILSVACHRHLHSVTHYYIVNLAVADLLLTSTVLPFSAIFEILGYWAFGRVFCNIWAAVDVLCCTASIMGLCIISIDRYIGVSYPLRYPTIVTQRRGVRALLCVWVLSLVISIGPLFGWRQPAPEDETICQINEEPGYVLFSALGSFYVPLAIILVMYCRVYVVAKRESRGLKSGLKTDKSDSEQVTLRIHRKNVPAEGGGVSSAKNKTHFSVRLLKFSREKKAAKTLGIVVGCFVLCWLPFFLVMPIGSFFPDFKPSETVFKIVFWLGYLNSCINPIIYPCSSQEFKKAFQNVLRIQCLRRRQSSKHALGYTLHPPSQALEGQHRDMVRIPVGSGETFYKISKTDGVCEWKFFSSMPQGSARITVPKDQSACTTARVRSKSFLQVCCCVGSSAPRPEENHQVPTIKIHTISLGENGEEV

Calcitonin receptor = target: T2, Calcitonin receptor (Homo sapiens, UniProt P30988); type: cell membranes, Membrane; conditions: t47d; note: in other assays of this panel Not Active means under 50% inhibition at 10 µM
T2 sequence (P30988 whole entry): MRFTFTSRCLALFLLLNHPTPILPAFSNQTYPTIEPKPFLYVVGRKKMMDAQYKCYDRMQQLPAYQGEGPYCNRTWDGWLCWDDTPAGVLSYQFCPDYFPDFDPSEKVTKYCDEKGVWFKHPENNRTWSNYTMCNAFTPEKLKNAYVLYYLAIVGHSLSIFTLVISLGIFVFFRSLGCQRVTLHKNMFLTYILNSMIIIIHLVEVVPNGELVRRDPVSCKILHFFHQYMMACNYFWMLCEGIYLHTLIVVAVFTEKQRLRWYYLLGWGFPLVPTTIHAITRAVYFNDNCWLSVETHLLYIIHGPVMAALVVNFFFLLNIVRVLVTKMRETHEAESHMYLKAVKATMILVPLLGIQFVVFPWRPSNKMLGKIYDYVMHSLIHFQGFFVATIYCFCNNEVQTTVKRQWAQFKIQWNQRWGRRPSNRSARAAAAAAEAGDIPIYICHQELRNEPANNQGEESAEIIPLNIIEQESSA

[2] = target: T3, C-X-C chemokine receptor type 1 (Homo sapiens, UniProt P25024); note: in other assays of this panel Not Active means under 50% inhibition at 10 µM
T3 sequence (P25024 whole entry): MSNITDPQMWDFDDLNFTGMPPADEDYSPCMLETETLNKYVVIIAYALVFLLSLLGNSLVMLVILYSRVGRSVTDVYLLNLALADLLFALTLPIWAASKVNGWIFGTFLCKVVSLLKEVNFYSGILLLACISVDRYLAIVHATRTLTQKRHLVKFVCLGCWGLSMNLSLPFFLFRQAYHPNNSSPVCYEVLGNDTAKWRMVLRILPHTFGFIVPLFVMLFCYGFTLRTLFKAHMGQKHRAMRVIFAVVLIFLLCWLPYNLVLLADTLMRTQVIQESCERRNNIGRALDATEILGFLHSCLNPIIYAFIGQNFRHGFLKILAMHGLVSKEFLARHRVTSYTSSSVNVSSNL

Glycine receptor = Glycine receptor (Rattus norvegicus, UniProt P22771+P24524+P07727+P20781); type: cell membranes, Wistar, Spinal cord, Membrane; note: in other assays of this panel Not Active means under 50% inhibition at 10 µM
[3] = DRUGMATRIX: Leukotriene, BLT (LTB4) radioligand binding (ligand: [3H]LTB4); type: cell membranes, Membrane; conditions: u-937; Not Active = under 50% inhibition at 10 µM
Melanocortin receptor 3 = Melanocortin receptor 3 (Homo sapiens, UniProt P41968); type: cell membranes, HEK293, Membrane; conditions: hek293; note: in other assays of this panel Not Active means under 50% inhibition at 10 µM
Chain of Melanocortin receptor 3 (P41968 whole entry): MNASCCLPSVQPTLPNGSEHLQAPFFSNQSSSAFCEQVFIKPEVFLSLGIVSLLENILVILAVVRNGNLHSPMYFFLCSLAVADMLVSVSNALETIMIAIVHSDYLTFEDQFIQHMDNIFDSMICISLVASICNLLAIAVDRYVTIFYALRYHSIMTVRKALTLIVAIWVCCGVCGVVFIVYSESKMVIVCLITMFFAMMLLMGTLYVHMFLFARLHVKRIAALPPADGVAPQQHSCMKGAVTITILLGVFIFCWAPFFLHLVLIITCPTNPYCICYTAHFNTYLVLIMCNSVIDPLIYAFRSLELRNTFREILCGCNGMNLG

Cathepsin G = target: T4, Cathepsin G (Homo sapiens, UniProt P08311); type: tissue-based; conditions: neutrophil
T4 sequence (P08311 whole entry): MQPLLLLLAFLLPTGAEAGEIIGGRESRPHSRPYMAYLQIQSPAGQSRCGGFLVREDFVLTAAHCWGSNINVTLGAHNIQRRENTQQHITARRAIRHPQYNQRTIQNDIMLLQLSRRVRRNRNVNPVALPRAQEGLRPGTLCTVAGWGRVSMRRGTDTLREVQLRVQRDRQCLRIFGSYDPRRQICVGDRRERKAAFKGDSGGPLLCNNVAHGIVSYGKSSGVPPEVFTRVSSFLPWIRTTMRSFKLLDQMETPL

[4] = target: Epidermal growth factor receptor (Homo sapiens, UniProt P00533); experiment: DRUGMATRIX: Protein Tyrosine Kinase, EGF Receptor enzyme inhibition (substrate: Poly(Glu:Tyr)); type: cell-based, Insect cells; conditions: Not Active = under 50% inhibition at 10 µM

Row | Compound | IC50 [1] | IC50 (Calcitonin receptor) | IC50 [2] | IC50 (Glycine receptor) | IC50 [3] | Ki [3] | IC50 (Melanocortin receptor 3) | IC50 (Cathepsin G) | IC50 ([4]; insect cells) | IC50 ([1]; read-out: IC50) [nM] | Ki ([1]; read-out: Ki) [nM] | IC50 ([4]; read-out: IC50) [nM] | Ki [1] | Ki (Calcitonin receptor) | Ki [2] | Ki (Glycine receptor) | Ki (Melanocortin receptor 3) | Ki (Cathepsin G) | Ki ([4]; insect cells)
1 | C[n+]1ccc(-c2cc[n+](C)cc2)cc1.[Cl-].[Cl-] [PARAQUAT DICHLORIDE] | Not Active | Not Active | Not Active | Not Active | Not Active | Not Active | Not Active | Not Active | Not Active | – | – | – | – | – | – | – | – | – | –
2 | CC(C)NCC(O)COc1cccc2[nH]ccc12 (centres undefined) [PINDOLOL] | Not Active | Not Active | Not Active | Not Active | Not Active | Not Active | Not Active | Not Active | Not Active | – | – | – | – | – | – | – | – | – | –
3 | CCn1cc(C(=O)O)c(=O)c2cnc(N3CCCC3)nc21 [PIROMIDIC ACID] | Not Active | Not Active | Not Active | Not Active | Not Active | Not Active | Not Active | Not Active | Not Active | – | – | – | – | – | – | – | – | – | –
4 | C[n+]1ccccc1/C=N/O.[Cl-] [PRALIDOXIME CHLORIDE] | Not Active | Not Active | Not Active | Not Active | Not Active | Not Active | Not Active | Not Active | Not Active | – | – | – | – | – | – | – | – | – | –
5 | C[C@]12C=CC(=O)C=C1CC[C@@H]1[C@@H]2[C@@H](O)C[C@@]2(C)[C@H]1CC[C@]2(O)C(=O)CO [PREDNISOLONE] | Not Active | Not Active | Not Active | Not Active | Not Active | Not Active | Not Active | Not Active | Not Active | – | – | – | – | – | – | – | – | – | –
6 | CC(=O)[C@H]1[C@H](C#N)C[C@H]2[C@@H]3CC=C4C[C@@H](O)CC[C@]4(C)[C@H]3CC[C@@]21C [PREGNENOLONE CARBONITRILE] | Not Active | Not Active | Not Active | Not Active | Not Active | Not Active | Not Active | Not Active | Not Active | – | – | – | – | – | – | – | – | – | –
7 | CCCN(CCC)S(=O)(=O)c1ccc(C(=O)O)cc1 [PROBENECID] | Not Active | Not Active | Not Active | Not Active | Not Active | Not Active | Not Active | Not Active | Not Active | – | – | – | – | – | – | – | – | – | –
8 | CCCNCC(O)COc1ccccc1C(=O)CCc1ccccc1 (centres undefined) [PROPAFENONE] | – | Not Active | Not Active | Not Active | Not Active | Not Active | Not Active | Not Active | Not Active | 6150 | 2490 | – | – | – | – | – | – | – | –
9 | CCCOc1ccc(C(=O)OCCN(CC)CC)cc1N [PROPARACAINE] | Not Active | Not Active | Not Active | Not Active | Not Active | Not Active | Not Active | Not Active | Not Active | – | – | – | – | – | – | – | – | – | –
10 | CC(C)c1cccc(C(C)C)c1O [PROPOFOL] | Not Active | Not Active | Not Active | Not Active | Not Active | Not Active | Not Active | Not Active | Not Active | – | – | – | – | – | – | – | – | – | –
11 | C[C@@H]1O[C@@H](O[C@@H]2C=C3CC[C@@H]4[C@H](CC[C@]5(C)[C@@H](c6ccc(=O)oc6)CC[C@]45O)[C@@]3(C)CC2)[C@H](O)[C@H](O)[C@H]1O [PROSCILLARIDIN] | Not Active | Not Active | Not Active | Not Active | Not Active | Not Active | Not Active | Not Active | Not Active | – | – | – | – | – | – | – | – | – | –
12 | Oc1cccc(O)c1O [PYROGALLOL] | Not Active | Not Active | Not Active | Not Active | Not Active | Not Active | Not Active | Not Active | – | – | – | 1230 | – | – | – | – | – | – | –
13 | AURANOFIN | Not Active | Not Active | Not Active | Not Active | Not Active | Not Active | Not Active | Not Active | Not Active | – | – | – | Not Active | Not Active | Not Active | Not Active | Not Active | Not Active | Not Active
14 | GADOPENTETATE DIMEGLUMINE | Not Active | Not Active | Not Active | Not Active | Not Active | Not Active | Not Active | Not Active | Not Active | – | – | – | Not Active | Not Active | Not Active | Not Active | Not Active | Not Active | Not Active
15 | GENTAMICIN | Not Active | Not Active | Not Active | Not Active | Not Active | Not Active | Not Active | Not Active | Not Active | – | – | – | Not Active | Not Active | Not Active | Not Active | Not Active | Not Active | Not Active
16 | GRAMICIDIN | Not Active | Not Active | Not Active | Not Active | Not Active | Not Active | Not Active | Not Active | Not Active | – | – | – | Not Active | Not Active | Not Active | Not Active | Not Active | Not Active | Not Active
17 | NYSTATIN | Not Active | Not Active | Not Active | Not Active | Not Active | Not Active | Not Active | Not Active | Not Active | – | – | – | Not Active | Not Active | Not Active | Not Active | Not Active | Not Active | Not Active

From ChEMBL document CHEMBL1909046, “DrugMatrix in vitro pharmacology data”
